{"source": "patent US5710160A", "about": "“Diphenyl pyridyl ethane derivatives as PDE IV inhibitors” (Merck Frosst Canada, Inc., priority 1996, dated 1998)"}
{"system": "right atrial and papillary muscles", "assay": "Effects on cardiac muscle in vitro", "parameters": "species or system guinea pigs", "settings": "reference PDE inhibitors; no concentration given", "description": "Right atrial and papillary muscles were dissected out from the hearts of guinea pigs and suspended in organ baths for measuring the rate (chronotropic) of spontaneously beating atria and force (inotropic) of the electrically stimulated papillary muscle."}
{"compound": "Cc1[nH]c(=O)c(C#N)cc1-c1ccncc1", "note": "[milrinone]", "direct (chronotropic and inotropic) effects in these preparations": "positive chronotropic and inotropic effects"}
{"compound": "COc1ccc(C2CNC(=O)C2)cc1OC1CCCC1", "note": "(stereo not drawn) [rolipram]", "direct (chronotropic and inotropic) effects in these preparations": "do not have any direct effects"}
{"system": "right atrial and papillary muscles", "assay": "not given", "settings": "non-specific PDE inhibitor; general statement; cited from earlier work"}
{"compound": "Cn1c(=O)c2[nH]cnc2n(C)c1=O", "note": "[theophylline]", "cardiovascular changes": "significant cardiovascular changes such as tachycardia"}
{"biological_target": "T1, GST fusion protein of the human recombinant phosphodiesterase IVa (met-248) (Homo sapiens, UniProt P27815)", "T1 construct": "GST-Met 248 PDE IVa; made in house; host or cells: Sf-9 insect cells (baculovirus expression system)", "T1 sequence (P27815 248-886 limits assumed)": "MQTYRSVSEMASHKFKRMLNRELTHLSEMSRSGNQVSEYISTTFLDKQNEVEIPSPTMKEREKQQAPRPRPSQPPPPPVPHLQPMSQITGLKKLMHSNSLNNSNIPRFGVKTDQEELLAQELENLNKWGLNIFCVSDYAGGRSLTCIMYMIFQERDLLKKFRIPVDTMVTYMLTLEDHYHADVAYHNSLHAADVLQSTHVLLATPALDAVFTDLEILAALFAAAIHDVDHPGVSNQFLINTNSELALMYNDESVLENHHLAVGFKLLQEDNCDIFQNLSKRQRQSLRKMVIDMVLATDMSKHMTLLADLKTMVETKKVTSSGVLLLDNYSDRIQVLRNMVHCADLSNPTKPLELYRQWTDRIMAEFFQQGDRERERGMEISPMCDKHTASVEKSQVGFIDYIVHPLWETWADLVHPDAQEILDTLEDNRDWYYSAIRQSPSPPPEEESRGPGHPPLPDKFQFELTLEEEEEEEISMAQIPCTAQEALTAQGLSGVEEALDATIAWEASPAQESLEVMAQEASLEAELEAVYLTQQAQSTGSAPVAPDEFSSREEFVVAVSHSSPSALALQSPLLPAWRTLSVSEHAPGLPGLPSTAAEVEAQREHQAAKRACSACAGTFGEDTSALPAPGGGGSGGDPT", "assay": "SPA based PDE activity assay (hydrolysis of cAMP to AMP)", "assay_type": "biochemical", "settings": "100 nM cAMP; purified GST fusion protein, baculovirus/Sf-9; 10 min at 30° C", "method": "Phosphodiesterase Scintillation Proximity Assay\nCHO-K1 cells were lysed by sonication for 10 secs at a power setting of 50% (Braunsonic Model 2000) in an ice cold solution containing 50 mM Tris, pH 7.5; 1 mM EDTA; and 200 mM b-mercaptoethanol.\nThe soluble and particulate fractions of the cell were obtained by centrifuging the sonicate for 90 min. at 100,000 x g at 4° C. PDE activity was measured in a solution containing 50 mM Tris, pH 7.5; 10 mM MgCl2; 1 mM EDTA; and 100 nM (or indicated) ^3 H-cAMP (100 ml final volume) in the presence of varying concentrations of inhibitor. The reaction mixture containing enzyme was incubated for 10 min. at 30° C. in 96-well View Plates (Packard), and terminated by the addition of 50 ml Phosphodiesterase Scintillation Proximity Assay (SPA) Beads (Amersham) containing 18 mM ZnSO4. The amount of ^3 H-cAMP hydrolysis was determined by counting the plates in a Wallac 1450 mBeta LSC counter.\nSPA based PDE activity assay protocol\nCompounds which inhibit the hydrolysis of cAMP to AMP by the type-IV cAMP-specific phosphodiesterases were screened in 96-well plate format as follows:\nIn a 96 well-plate at 30° C. was added the test compound (dissolved in 2 ul DMSO), 188 ml of substrate buffer containing [2,8-^3 H] adenosine 3',5'-cyclic phosphate (cAMP, 100 nM to 50 μM), 10 mM MgCl2, 1 mM EDTA, 50 mM Tris, pH 7.5. The reaction was initiated by the addition of […] of human recombinant PDE-IV (the amount was controlled so that~10% product was formed in 10 min. at 30° C). The reaction was stopped after 10 min. by the addition of 1 mg of PDE-SPA beads (Amersham). The product AMP generated was quantified on a Microbeta 96-well plate counter. The signal in the absence of enzyme was defined as the background. 100% activity was defined as the signal detected in the presence of enzyme and DMSO with the background subtracted. Percentage of inhibition was calculated accordingly. IC50 value was approximated with a non-linear regression fit of the standard 4-parameter/multiple binding sites equation from a ten point titration.\nIC50 values shown in Table 2 were determined with 100 nM cAMP using the purified GST fusion protein of the human recombinant phosphodiesterase IVa (met-248) produced from a baculovirus/Sf-9 expression system.", "units": {"IC50": "nM"}}
{"compound": "COc1ccc([C@H](Cc2ccncc2)c2ccc(C(=O)N3CCN(C)CC3)cc2)cc1OC1CCCC1", "note": "[Example 1, (R)-4-{2-(3-Cyclopentyloxy-4-methoxyphenyl)-2-[4-(4-methylpiperazinocarbonyl)pheny]lethyl}pyridine]", "IC50": 0.8}
{"compound": "COc1ccc([C@H](Cc2ccncc2)c2ccc(C(=O)N3CCCC3)cc2)cc1OC1CCCC1", "note": "[Example 2, (R)-4-[2-(3-Cyclopentyloxy-4-methoxyphenyl)-2-(4-pyrrolidinocarbonylphenyl)ethyl]pyridine]", "IC50": 1}
{"compound": "COc1ccc([C@H](Cc2ccncc2)c2ccc(C=NO)cc2)cc1OC1CCCC1", "note": "[Example 3, (R)-4-[1-(3-Cyclopentyloxy-4-methoxyphenyl)-2-(4-pyridyl)ethyl]benzaldehyde oxime]", "IC50": 3}
{"compound": "COc1ccc([C@H](Cc2ccncc2)c2ccc(-c3nnn[nH]3)cc2)cc1OC1CCCC1", "note": "[Example 4, (R)-4-{2-(3-Cyclopentyloxy-4-methoxyphenyl)-2-[4-(tetrazol-5-yl)phenyl]ethyl}pyridine]", "IC50": 2}
{"compound": "COc1ccc([C@H](Cc2ccncc2)c2ccc(C(C)O)cc2)cc1OC1CCCC1", "note": "(stereo partly drawn) [Example 5, (R)-4-{2-(3-Cyclopentyloxy-4-methoxyphenyl)-2-[4-(1-hydroxyethyl)phenyl]ethyl}pyridine]", "IC50": 2}
{"compound": "COc1ccc([C@H](Cc2ccncc2)c2ccc(C(C)=O)cc2)cc1OC1CCCC1", "note": "[Example 6, (R)-4-[2-(3-Cyclopentyloxy-4-methoxyphenyl)-2-(4-acetylphenyl)ethyl]pyridine]", "IC50": 3}
